Experimental data published in US11566007B2, “Ras inhibitors” (Revolution Medicines, Inc., priority 2019, dated 2023).

Columns and labels:
[1] = tested on: NCI-H358 (K-Ras G12C); test: CellTiter-Glo cell viability assay, NCI-H358; format: cell-based, human; conditions: Homo sapiens, NCI-H358, 120 h, NCI-H358, 5-day treatment; class symbols; read-out: Additional H358 Cell Viability assay data (K-Ras G12C, IC50)
Summary of the method: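 Cells seeded, compound added directly, 5-day exposure. Plates to RT ~30 min, CellTiter-Glo luminescence read. Normalized to DMSO avg (x100); 4-parameter logistic fit.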

[2] = target: K-Ras G12C (Homo sapiens (Human), UniProt P01116+P62937, G12C); test: Ras-Raf (BRAF RBD) disruption / FRET / MOA assay, KRAS G12C; format: biochemical; conditions: KRAS G12C; Ras-Raf disruption/FRET/MOA assay; read-out: IC50* KRAS G12C FRET data
Summary of the method: (§1)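 TR-FRET read-out: a drop in ratio relative to DMSO wells marks disruption of the Ras:RAF complex, reported as IC50. Compounds (3-fold series, 10 points, top 30 μM final) incubated 3 h at 25° C before Eu-anti-His 10 nM and APC-anti-GST 50 nM, 1.5 h more.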

[3] = target: K-Ras G13C (Homo sapiens (Human), UniProt P01116+P62937, G13C); test: Ras-Raf (BRAF RBD) disruption / FRET / MOA assay, KRAS G13C; format: biochemical; conditions: KRAS G13C; Ras-Raf disruption/FRET/MOA assay; read-out: IC50* KRAS G13C FRET data
Summary of the method: as §1

[4] = target: KRAS G12S (Homo sapiens (Human), UniProt P01116+P62937, G12S); test: Ras-Raf (BRAF RBD) disruption / FRET / MOA assay, KRAS G12S; format: biochemical; conditions: Ras-Raf disruption/FRET/MOA assay; class symbols; read-out: KRAS G12S FRET data IC50
Summary of the method: as §1

[5] = target: KRAS G12D (Homo sapiens (Human), UniProt P01116+P62937, G12D); test: Ras-Raf (BRAF RBD) disruption / FRET / MOA assay, KRAS G12D; format: biochemical; conditions: Ras-Raf disruption/FRET/MOA assay; class symbols; read-out: KRAS G12D FRET data IC50
Summary of the method: as §1

[6] = target: KRAS WT (Homo sapiens (Human), UniProt P01116+P62937); test: Ras-Raf (BRAF RBD) disruption / FRET / MOA assay, KRAS WT; format: biochemical; conditions: read-out: IC50* KRAS WT FRET data
Summary of the method: as §1

[7] = target: KRAS G13D (Homo sapiens (Human), UniProt P01116+P62937, G13D); test: Ras-Raf (BRAF RBD) disruption / FRET / MOA assay, KRAS G13D; format: biochemical; conditions: read-out: IC50* KRAS G13D FRET data
Summary of the method: as §1

[8] = target: KRAS Q61H (Homo sapiens (Human), UniProt P01116+P62937, Q61H); test: Ras-Raf (BRAF RBD) disruption / FRET / MOA assay, KRAS Q61H; format: biochemical; conditions: Ras-Raf disruption/FRET/MOA assay; class symbols; read-out: KRAS Q61H FRET data IC50
Summary of the method: (§2)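 Compounds were tested as a 10-point 3-fold dilution series from 30 μM final for their ability to drive ternary complex formation between nucleotide-loaded Ras and cyclophilin A, displacing the BRAF RBD. After 3 h at 25° C., anti-His Eu-W1024 (10 nM) and anti-GST allophycocyanin (50 nM) were added for 1.5 h. A TR-FRET ratio decrease versus DMSO gave IC50.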

[9] = target: NRAS G12C (Homo sapiens (Human), UniProt P01111+P62937, G12C); test: Ras-Raf (BRAF RBD) disruption / FRET / MOA assay, NRAS G12C; format: biochemical; conditions: read-out: IC50* NRAS G12C FRET data
Summary of the method: as §1

[10] = target: NRAS Q61R (Homo sapiens (Human), UniProt P01111+P62937, Q61R); test: Ras-Raf (BRAF RBD) disruption / FRET / MOA assay, NRAS Q61R; format: biochemical; conditions: NRAS Q61R; Ras-Raf disruption/FRET/MOA assay; read-out: IC50* NRAS Q61R FRET data
Summary of the method: as §2

[11] = target: NRAS Q61K (Homo sapiens (Human), UniProt P01111+P62937, Q61K); test: Ras-Raf (BRAF RBD) disruption / FRET / MOA assay, NRAS Q61K; format: biochemical; conditions: NRAS Q61K; Ras-Raf disruption/FRET/MOA assay; read-out: IC50* NRAS Q61K FRET data
Summary of the method: as §2

[12] = target: NRAS WT (Homo sapiens (Human), UniProt P01111+P62937); test: Ras-Raf (BRAF RBD) disruption / FRET / MOA assay, NRAS WT; format: biochemical; conditions: read-out: IC50* NRAS WT FRET data
Summary of the method: as §2

Chain of KRAS G12S (P01116-2 other isoform, or with tags, fused parts or gaps G12S): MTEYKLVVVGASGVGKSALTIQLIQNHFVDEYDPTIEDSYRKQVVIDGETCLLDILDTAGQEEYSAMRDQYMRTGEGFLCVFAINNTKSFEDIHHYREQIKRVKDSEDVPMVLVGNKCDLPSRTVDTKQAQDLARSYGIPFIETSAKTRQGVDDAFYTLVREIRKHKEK
Chain of KRAS G12S (P62937 whole entry): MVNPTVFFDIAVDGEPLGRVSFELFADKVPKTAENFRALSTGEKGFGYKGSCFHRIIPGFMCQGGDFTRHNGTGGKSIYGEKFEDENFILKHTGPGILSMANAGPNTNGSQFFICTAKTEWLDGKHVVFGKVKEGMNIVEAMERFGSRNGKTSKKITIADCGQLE
Chain of NRAS WT (P01111 whole entry): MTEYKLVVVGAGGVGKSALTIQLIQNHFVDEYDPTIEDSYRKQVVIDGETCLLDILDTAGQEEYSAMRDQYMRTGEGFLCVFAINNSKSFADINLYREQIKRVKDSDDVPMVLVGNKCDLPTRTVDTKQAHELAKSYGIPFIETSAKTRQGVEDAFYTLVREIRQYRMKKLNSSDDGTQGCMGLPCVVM
Chain of NRAS WT (P62937 whole entry): as the sequence (P62937 whole entry) above
Chain of NRAS Q61K (P01111 whole entry Q61K): as the sequence (P01111 whole entry) above, with Q61K counted along it
Chain of NRAS Q61K (P62937 whole entry): as the sequence (P62937 whole entry) above
Chain of KRAS G12D (P01116-2 other isoform, or with tags, fused parts or gaps G12D): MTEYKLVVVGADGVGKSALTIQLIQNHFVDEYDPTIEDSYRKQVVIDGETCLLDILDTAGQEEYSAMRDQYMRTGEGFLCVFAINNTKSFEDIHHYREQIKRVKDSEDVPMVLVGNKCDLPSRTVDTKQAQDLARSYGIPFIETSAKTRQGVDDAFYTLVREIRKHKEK
Chain of KRAS G12D (P62937 whole entry): as the sequence (P62937 whole entry) above
Chain of KRAS G13D (P01116-2 other isoform, or with tags, fused parts or gaps G13D): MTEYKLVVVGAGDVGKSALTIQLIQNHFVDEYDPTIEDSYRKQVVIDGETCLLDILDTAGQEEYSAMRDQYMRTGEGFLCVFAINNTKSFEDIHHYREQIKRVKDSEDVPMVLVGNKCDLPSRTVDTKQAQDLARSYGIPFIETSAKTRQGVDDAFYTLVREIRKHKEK
Chain of KRAS G13D (P62937 whole entry): as the sequence (P62937 whole entry) above
Chain of NRAS G12C (P01111 whole entry G12C): as the sequence (P01111 whole entry) above, with G12C counted along it
Chain of NRAS G12C (P62937 whole entry): as the sequence (P62937 whole entry) above
Chain of KRAS Q61H (P01116-2 other isoform, or with tags, fused parts or gaps Q61H): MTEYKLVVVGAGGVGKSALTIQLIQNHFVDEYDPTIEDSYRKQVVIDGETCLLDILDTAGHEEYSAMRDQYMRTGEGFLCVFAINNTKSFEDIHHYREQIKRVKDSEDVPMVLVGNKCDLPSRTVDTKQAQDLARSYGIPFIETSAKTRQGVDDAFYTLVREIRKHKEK
Chain of KRAS Q61H (P62937 whole entry): as the sequence (P62937 whole entry) above
Chain of NRAS Q61R (P01111 whole entry Q61R): as the sequence (P01111 whole entry) above, with Q61R counted along it
Chain of NRAS Q61R (P62937 whole entry): as the sequence (P62937 whole entry) above
Chain of K-Ras G13C (P01116-2 other isoform, or with tags, fused parts or gaps G13C): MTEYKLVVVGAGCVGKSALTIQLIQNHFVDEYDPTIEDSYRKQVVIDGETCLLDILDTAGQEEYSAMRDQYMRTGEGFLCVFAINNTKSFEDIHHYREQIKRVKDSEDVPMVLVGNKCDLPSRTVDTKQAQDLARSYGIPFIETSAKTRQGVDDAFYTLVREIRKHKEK
Chain of K-Ras G13C (P62937 whole entry): as the sequence (P62937 whole entry) above
Chain of KRAS WT (P01116-2 other isoform, or with tags, fused parts or gaps): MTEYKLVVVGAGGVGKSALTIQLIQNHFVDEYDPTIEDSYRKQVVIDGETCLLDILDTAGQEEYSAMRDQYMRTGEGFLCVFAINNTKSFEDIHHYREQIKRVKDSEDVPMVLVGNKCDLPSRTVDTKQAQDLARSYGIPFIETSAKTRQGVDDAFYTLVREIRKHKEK
Chain of KRAS WT (P62937 whole entry): as the sequence (P62937 whole entry) above
Chain of K-Ras G12C (P01116-2 other isoform, or with tags, fused parts or gaps G12C): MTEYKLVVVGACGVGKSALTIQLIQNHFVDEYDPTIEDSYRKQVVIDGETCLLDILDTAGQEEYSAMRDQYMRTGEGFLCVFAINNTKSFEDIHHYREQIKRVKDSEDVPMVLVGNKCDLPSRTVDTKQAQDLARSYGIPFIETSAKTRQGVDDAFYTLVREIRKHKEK
Chain of K-Ras G12C (P62937 whole entry): as the sequence (P62937 whole entry) above

| Compound | IC50 [1] [nM] | IC50 [2] [nM] | IC50 [3] [nM] | IC50 [4] [nM] | IC50 [5] [nM] | IC50 [6] [nM] | IC50 [7] [nM] | IC50 [8] [nM] | IC50 [9] [nM] | IC50 [10] [nM] | IC50 [11] [nM] | IC50 [12] [nM] |
| --- | --- | --- | --- | --- | --- | --- | --- | --- | --- | --- | --- | --- |
| CCn1c(-c2cccnc2[C@H](C)OC)c2c3cc(ccc31)-c1csc(n1)C[C@H](NC(=O)[C@H](C(C)C)N(C)C(=O)N1C[C@@H]3CN(C(=O)C#CC(C)(C)N(C)C)CC[C@@H]31)C(=O)N1CCC[C@H](N1)C(=O)OCC(C)(C)C2 (atropisomer, axis not shown) [Example A625] | 10 to 100 | 100 to 1000 | 100 to 1000 | 100 to 1000 | 1000 to 10000 | 100 to 1000 | 1000 to 10000 | 100 to 1000 | 100 to 1000 | 100 to 1000 | 100 to 1000 | 100 to 1000 |
| C=CC(=O)N(C)[C@H]1CN(C(=O)N(C)[C@H](C(=O)N[C@H]2Cc3nc(cs3)-c3ccc4c(c3)c(c(-c3cccnc3[C@H](C)OC)n4CC)CC(C)(C)COC(=O)[C@@H]3CCCN(N3)C2=O)C(C)C)C[C@@H]1F (atropisomer, axis not shown) [Example A632] | 100 to 1000 | 10 to 100 | 10 to 100 | 100 to 1000 | 1000 to 10000 | 100 to 1000 | 1000 to 10000 | 100 to 1000 | 10 to 100 | 100 to 1000 | 100 to 1000 | 100 to 1000 |
| C=CC(=O)N(C)[C@@H]1C[C@H](C)N(C(=O)N(C)[C@H](C(=O)N[C@H]2Cc3nc(cs3)-c3ccc4c(c3)c(c(-c3cccnc3[C@H](C)OC)n4CC)CC(C)(C)COC(=O)[C@@H]3CCCN(N3)C2=O)C(C)C)C1 (atropisomer, axis not shown) [Example A633] | 10 to 100 | 100 to 1000 | 100 to 1000 | 100 to 1000 | 100 to 1000 | 10 to 100 | 100 to 1000 | 10 to 100 | 10 to 100 | 10 to 100 | 10 to 100 | 10 to 100 |
| C=CC(=O)N(C)[C@@H]1C[C@@H](C)N(C(=O)N(C)[C@H](C(=O)N[C@H]2Cc3nc(cs3)-c3ccc4c(c3)c(c(-c3cccnc3[C@H](C)OC)n4CC)CC(C)(C)COC(=O)[C@@H]3CCCN(N3)C2=O)C(C)C)C1 (atropisomer, axis not shown) [Example A634] | 10 to 100 | 10 to 100 | 100 to 1000 | 100 to 1000 | 1000 to 10000 | 100 to 1000 | 1000 to 10000 | 100 to 1000 | 10 to 100 | 100 to 1000 | 100 to 1000 | 100 to 1000 |
| C=CC(=O)N1CCCC2(CCN(C(=O)N(C)[C@H](C(=O)N[C@H]3Cc4nc(cs4)-c4ccc5c(c4)c(c(-c4cccnc4[C@H](C)OC)n5CC)CC(C)(C)COC(=O)[C@@H]4CCCN(N4)C3=O)C(C)C)CC2)C1 (atropisomer, axis not shown) [Example A635] | 100 to 1000 | 100 to 1000 | 100 to 1000 | 100 to 1000 | 1000 to 10000 | 100 to 1000 | 1000 to 10000 | 100 to 1000 | 100 to 1000 | 100 to 1000 | 100 to 1000 | 100 to 1000 |
| C=CC(=O)N1CC2(CCN2C(=O)N(C)[C@H](C(=O)N[C@H]2Cc3cccc(n3)-c3ccc4c(c3)c(c(-c3cccnc3[C@H](C)OC)n4CC)CC(C)(C)COC(=O)[C@@H]3CCCN(N3)C2=O)C(C)C)C1 (atropisomer, axis not shown) [Example A636] | < 10 | 10 to 100 | 100 to 1000 | 100 to 1000 | 1000 to 10000 | 100 to 1000 | 1000 to 10000 | 100 to 1000 | 10 to 100 | 100 to 1000 | 100 to 1000 | 100 to 1000 |
| CCn1c(-c2cccnc2[C@H](C)OC)c2c3cc(ccc31)-c1csc(n1)C[C@H](NC(=O)C[C@@H](C)OC1CN(C(=O)C#CC(C)(C)N(C)C)C1)C(=O)N1CCC[C@H](N1)C(=O)OCC(C)(C)C2 (atropisomer, axis not shown) [Example A638] | 10 to 100 | < 10 | 1000 to 10000 | 1000 to 10000 | > 10000 | 1000 to 10000 | 1000 to 10000 | 1000 to 10000 | < 10 | 1000 to 10000 | 1000 to 10000 | 1000 to 10000 |
| C=CC(=O)N1CC[C@H](C(=O)N(C)[C@H](C(=O)N[C@H]2Cc3cccc(c3)-c3ccc4c(c3)c(c(-c3cccnc3[C@H](C)OC)n4CC)CC(C)(C)COC(=O)[C@@H]3CCCN(N3)C2=O)[C@@H](C)C(F)(F)F)C1 (atropisomer, axis not shown) [Example A640] | 10 to 100 | 100 to 1000 | 100 to 1000 | 1000 to 10000 | 1000 to 10000 | 1000 to 10000 | 1000 to 10000 | 100 to 1000 | 100 to 1000 | 1000 to 10000 | 1000 to 10000 | 1000 to 10000 |
| CCn1c(-c2cccnc2[C@H](C)OC)c2c3cc(ccc31)N1CCO[C@@H](C[C@H](NC(=O)[C@H](C(C)C)N(C)C(=O)C3(F)CCN(C(=O)/C=C/CN(C)C)CC3)C(=O)N3CCC[C@H](N3)C(=O)OCC(C)(C)C2)C1 (atropisomer, axis not shown) [Example A645] | 10 to 100 | 10 to 100 | 100 to 1000 | 1000 to 10000 | 1000 to 10000 | 1000 to 10000 | 1000 to 10000 | 1000 to 10000 | 10 to 100 | > 10000 | > 10000 | 1000 to 10000 |
| CC#CC(=O)N1CC2(CCN2C(=O)N(C)[C@H](C(=O)N[C@H]2Cc3nc(cs3)-c3ccc4c(c3)c(c(-c3cccnc3[C@H](C)OC)n4CC)CC(C)(C)COC(=O)[C@@H]3CCCN(N3)C2=O)C(C)C)C1 (atropisomer, axis not shown) [Example A655] | 10 to 100 | 100 to 1000 | 100 to 1000 | 100 to 1000 | 1000 to 10000 | 100 to 1000 | 100 to 1000 | 10 to 100 | 100 to 1000 | 10 to 100 | 10 to 100 | 100 to 1000 |
| C=CC(=O)N1CC[C@]2(CCN2C(=O)N(C)[C@H](C(=O)N[C@H]2Cc3nc(cs3)-c3ccc4c(c3)c(c(-c3cccnc3[C@H](C)OC)n4CC)CC(C)(C)COC(=O)[C@@H]3CCCN(N3)C2=O)C(C)C)C1 (atropisomer, axis not shown) [Example A662] | 10 to 100 | 10 to 100 | 100 to 1000 | 100 to 1000 | 100 to 1000 | 100 to 1000 | 100 to 1000 | 10 to 100 | 10 to 100 | 100 to 1000 | 10 to 100 | 100 to 1000 |
| CCn1c(-c2cccnc2[C@H](C)OC)c2c3cc(ccc31)-c1csc(n1)C[C@H](NC(=O)[C@H](C(C)C)N(C)C(=O)N1CCCOC13CN(C(=O)C#CC(C)(C)N(C)C)C3)C(=O)N1CCC[C@H](N1)C(=O)OCC(C)(C)C2 (atropisomer, axis not shown) [Example A666] | 10 to 100 | 1000 to 10000 | > 10000 | > 10000 | > 10000 | > 10000 | > 10000 | 1000 to 10000 | 1000 to 10000 | > 10000 | > 10000 | > 10000 |
| C=CC(=O)N1CC[C@]2(COCCN2C(=O)N(C)[C@H](C(=O)N[C@H]2Cc3nc(cs3)-c3ccc4c(c3)c(c(-c3cccnc3[C@H](C)OC)n4CC)CC(C)(C)COC(=O)[C@@H]3CCCN(N3)C2=O)C(C)C)C1 (atropisomer, axis not shown) [Example A676] | 10 to 100 | 100 to 1000 | 1000 to 10000 | 1000 to 10000 | 1000 to 10000 | 100 to 1000 | 1000 to 10000 | 10 to 100 | 10 to 100 | 100 to 1000 | 100 to 1000 | 100 to 1000 |
